The target of this test is T1, recombinant human IL-8 type β receptor (Type II, permissive receptor) (Homo sapiens, UniProt P25025).
T1 construct: expressed in transfected cells; host or cells: Chinese hamster ovary (CHO) cells; membrane preparation
T1 sequence (P25025 1-360): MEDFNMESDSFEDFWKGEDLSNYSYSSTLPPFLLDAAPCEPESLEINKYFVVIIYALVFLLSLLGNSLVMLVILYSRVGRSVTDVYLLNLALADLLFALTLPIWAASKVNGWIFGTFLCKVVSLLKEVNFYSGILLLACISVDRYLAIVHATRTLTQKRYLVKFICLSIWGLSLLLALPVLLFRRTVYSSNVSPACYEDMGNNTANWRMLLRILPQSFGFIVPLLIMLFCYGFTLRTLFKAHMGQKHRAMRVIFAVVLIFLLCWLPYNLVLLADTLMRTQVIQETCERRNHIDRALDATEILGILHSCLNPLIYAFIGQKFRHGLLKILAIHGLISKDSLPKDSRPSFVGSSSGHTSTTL
In words: IL-8 receptor binding assay, permissive model (125I IL-8 / 125I Gro-α, CHO membranes). The conditions noted are these: recombinant receptor expressed in Chinese hamster ovary cell membranes, compound 0.01 nM to 100 uM. The procedure: The IL-8, and GRO-α chemokine inhibitory effects of compounds of the present invention were determined by the following in vitro assay:
[^125I] IL-8 (human recombinant) was obtained from Amersham Corp., Arlington Heights, Ill., with specific activity 2000 Ci/mmol. GRO-α was obtained from NEN-New England Nuclear. All other chemicals were of analytical grade. High levels of recombinant human IL-8 type α and β receptors were individually expressed in Chinese hamster ovary cells as described previously (Holmes, et al., Science, 1991, 253, 1278). The Chinese hamster ovary membranes were homogenized according to a previously described protocol (Haour, et al., J Biol Chem., 249 pp 2195-2205 (1974)). Except that the homogenization buffer was changed to 10 mM Tris-HCL, 1 mM MgS04, 0.5 mM EDTA (ethylene-diaminetetra-acetic acid), 1 mMPMSF (α-toluenesulphonyl fluoride), 0.5 mg/L Leupeptin, pH 7.5. Membrane protein concentration was determined using Pierce Co. micro-assay kit using bovine serum albumin as a standard. All assays were performed in a 96-well micro plate format. […] The filter was then dried and counted on the Betaplate liquid scintillation counter. […]

The values that follow come from patent US20030225125A1, “IL-8 receptor antagonists” (SmithKline Beecham Corporation, priority 1999, published 2003).

As for “N-(2,4-Dichloro-3-carboxy)-N′-(2,3-dichlorophenyl)urea”, the “inhibition in the permissive models for IL-8 receptor inhibition” value is “inactive”.
